Source: patent US10947242B2, “[1,2,4]triazolo[1,5and#8208;A]pyrimidine compounds as PDE2 inhibitors” (Janssen Pharmaceutica NV, priority 2016, dated 2021)
Read-outs that look alike come from different tables or passages of the source.

What was measured:
Format in all cases: biochemical
[1] = target: T1, Human recombinant PDE10A (hPDE10A) (Homo sapiens, UniProt Q9Y233); assay: In vitro assay PDE10A, human clone (SPA, 3H-cAMP hydrolysis)
T1 construct: His tag (inferred from metal chelate purification); made in house; host or cells: Sf9 insect cells (baculovirus)
Procedure, shortened: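 Human recombinant PDE10A was expressed in Sf9 cells via baculovirus and incubated with compound in 50 mM Tris pH 7.8, 8.3 mM MgCl2, 1.7 mM EGTA. Substrate was 60 nM cAMP plus 0.008 μCi 3H-cAMP for 60 min at room temperature, read by SPA scintillation counting. Controls used 1% DMSO, and blanks omitted enzyme.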

[2] = target: T2, Human recombinant PDE2A (hPDE2A) (Homo sapiens, UniProt O00408); assay: In vitro assay PDE2A (SPA, 3H-cGMP hydrolysis); settings: for Emax: read-out: hPDE2A Emax
T2 construct: His tag (inferred from metal chelate purification); made in house; host or cells: Sf9 insect cells (baculovirus)

[3] = target: T3, Human recombinant PDE3A (hPDE3A) (Homo sapiens, UniProt Q14432); assay: In vitro assay PDE3A (SPA, 3H-cAMP hydrolysis); settings: for IC50: hPDE3B pIC50; for Emax: read-out: hPDE3B Emax, read-out: Emax;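 as to Emax: the method names PDE3A and the table heading PDE3B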
T3 construct: purchased Scottish Biomedical; host or cells: Sf9 insect cells
Procedure, shortened: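 Human PDE3A, cloned from brain, as partially purified Sf9 lysate. Substrate 0.4 μM cAMP plus [3H]-cAMP (2.4 μCi/ml final) in 50 mM Tris pH 7.8, 8.3 mM MgCl2, 1.7 mM EGTA, 60 min at room temperature, 1% DMSO final. Hydrolysis read by SPA scintillation counting against no-enzyme blanks and DMSO controls.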

[4] = human clone by default (no (r) mark), read-out: hPDE10A2 or rPDE10A2 Emax
[5] = human clone by default (no (r) mark), read-out: hPDE10A2 or rPDE10A2 pIC50 (converted)
[6] = read-out: hPDE2A pIC50 (converted)
[7] = human clone (h), default, read-out: hPDE10A2 Emax
[8] = human clone (h), default, read-out: hPDE10A2 pIC50 (converted)
[9] = human recombinant PDE2A, 10 μM cGMP substrate, read-out: hPDE2A pIC50 (converted)

T2 sequence (O00408 whole entry): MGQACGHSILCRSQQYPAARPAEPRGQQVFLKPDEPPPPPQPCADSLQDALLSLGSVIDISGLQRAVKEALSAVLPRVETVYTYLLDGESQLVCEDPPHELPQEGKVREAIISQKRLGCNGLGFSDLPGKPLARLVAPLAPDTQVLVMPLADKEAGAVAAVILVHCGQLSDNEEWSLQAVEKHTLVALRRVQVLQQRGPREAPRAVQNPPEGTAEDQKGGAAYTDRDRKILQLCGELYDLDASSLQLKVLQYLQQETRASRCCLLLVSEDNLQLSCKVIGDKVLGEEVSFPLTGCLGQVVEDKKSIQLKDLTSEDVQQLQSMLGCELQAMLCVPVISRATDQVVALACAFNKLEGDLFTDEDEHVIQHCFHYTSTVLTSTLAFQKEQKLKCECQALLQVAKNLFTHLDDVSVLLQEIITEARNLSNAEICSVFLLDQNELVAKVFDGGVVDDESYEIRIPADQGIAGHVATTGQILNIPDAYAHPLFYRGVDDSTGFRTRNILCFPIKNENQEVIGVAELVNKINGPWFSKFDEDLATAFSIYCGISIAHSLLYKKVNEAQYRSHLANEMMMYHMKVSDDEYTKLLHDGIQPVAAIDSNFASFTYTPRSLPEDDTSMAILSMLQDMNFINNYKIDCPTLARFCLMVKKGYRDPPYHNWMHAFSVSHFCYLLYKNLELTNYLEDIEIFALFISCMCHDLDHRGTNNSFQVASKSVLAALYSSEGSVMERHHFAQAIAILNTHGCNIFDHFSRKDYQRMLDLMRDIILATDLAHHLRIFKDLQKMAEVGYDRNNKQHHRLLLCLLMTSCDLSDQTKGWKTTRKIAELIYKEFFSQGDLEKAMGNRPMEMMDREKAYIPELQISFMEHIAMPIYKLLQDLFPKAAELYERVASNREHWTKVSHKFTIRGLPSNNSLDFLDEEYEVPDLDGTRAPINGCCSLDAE
T1 sequence (Q9Y233 267-1055): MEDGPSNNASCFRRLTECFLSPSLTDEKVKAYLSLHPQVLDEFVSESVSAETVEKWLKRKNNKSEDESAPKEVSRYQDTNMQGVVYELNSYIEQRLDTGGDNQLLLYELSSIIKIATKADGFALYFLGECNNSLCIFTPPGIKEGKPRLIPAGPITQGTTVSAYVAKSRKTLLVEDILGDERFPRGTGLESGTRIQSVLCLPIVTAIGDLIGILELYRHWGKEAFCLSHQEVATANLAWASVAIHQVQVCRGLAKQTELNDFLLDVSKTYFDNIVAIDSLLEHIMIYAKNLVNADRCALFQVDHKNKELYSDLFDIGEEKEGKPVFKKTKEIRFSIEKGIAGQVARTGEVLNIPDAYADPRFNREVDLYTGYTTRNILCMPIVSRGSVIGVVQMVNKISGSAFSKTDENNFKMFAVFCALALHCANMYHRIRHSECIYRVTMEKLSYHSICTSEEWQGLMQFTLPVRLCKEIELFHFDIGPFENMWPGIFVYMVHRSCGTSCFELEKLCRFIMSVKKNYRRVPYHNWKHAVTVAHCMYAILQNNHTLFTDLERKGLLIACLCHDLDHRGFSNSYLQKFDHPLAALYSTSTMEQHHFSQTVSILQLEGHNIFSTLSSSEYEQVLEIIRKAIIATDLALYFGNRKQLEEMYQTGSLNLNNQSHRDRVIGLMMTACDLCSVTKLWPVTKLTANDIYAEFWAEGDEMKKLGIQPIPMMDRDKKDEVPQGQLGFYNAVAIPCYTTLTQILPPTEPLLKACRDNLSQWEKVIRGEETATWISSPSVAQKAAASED
T3 sequence (Q14432 whole entry): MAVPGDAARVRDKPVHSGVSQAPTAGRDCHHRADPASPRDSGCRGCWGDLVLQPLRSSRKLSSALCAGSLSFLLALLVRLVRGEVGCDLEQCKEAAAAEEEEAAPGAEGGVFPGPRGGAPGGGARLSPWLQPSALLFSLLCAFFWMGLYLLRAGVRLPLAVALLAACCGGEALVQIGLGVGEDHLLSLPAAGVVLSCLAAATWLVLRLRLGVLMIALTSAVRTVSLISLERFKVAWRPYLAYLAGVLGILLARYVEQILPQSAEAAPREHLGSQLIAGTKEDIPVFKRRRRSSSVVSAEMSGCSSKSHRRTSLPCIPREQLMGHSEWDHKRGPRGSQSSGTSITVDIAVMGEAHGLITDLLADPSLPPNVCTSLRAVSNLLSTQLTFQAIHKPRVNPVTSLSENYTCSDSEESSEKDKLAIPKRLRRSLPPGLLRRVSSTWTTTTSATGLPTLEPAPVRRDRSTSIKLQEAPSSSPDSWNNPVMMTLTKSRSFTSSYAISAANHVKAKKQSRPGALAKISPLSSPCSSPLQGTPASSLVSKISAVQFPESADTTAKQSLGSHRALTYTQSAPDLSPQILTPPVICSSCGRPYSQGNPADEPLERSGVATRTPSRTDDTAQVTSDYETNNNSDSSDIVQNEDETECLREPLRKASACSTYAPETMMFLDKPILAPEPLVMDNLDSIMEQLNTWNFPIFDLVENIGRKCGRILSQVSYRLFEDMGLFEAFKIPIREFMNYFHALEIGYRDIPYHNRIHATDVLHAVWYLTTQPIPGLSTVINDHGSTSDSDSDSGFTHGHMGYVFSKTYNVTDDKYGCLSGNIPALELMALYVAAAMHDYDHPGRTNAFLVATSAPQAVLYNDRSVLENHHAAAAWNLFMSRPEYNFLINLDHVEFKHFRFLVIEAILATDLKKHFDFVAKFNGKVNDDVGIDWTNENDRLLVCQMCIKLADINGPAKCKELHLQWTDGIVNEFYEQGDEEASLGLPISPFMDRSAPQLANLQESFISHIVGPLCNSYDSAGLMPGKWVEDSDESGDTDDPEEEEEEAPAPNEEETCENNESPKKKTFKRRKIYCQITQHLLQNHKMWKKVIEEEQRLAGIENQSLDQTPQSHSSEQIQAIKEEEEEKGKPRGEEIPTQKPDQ

SMILES	Emax [1, 4]	IC50 [1, 5]	Emax [2]	IC50 [2, 6]	IC50 ([3]; read-out: pIC50 (converted))	Emax [3]	Emax [1, 7]	IC50 [1, 8]	IC50 [2, 9]	Emax ([2]; human recombinant PDE2A)	IC50 ([1]; hPDE10A2 or rPDE10A2 pIC50, human clone by default (no (r) mark))	IC50 ([2]; hPDE2A pIC50)	IC50 [3]
Cc1ccc(C(=O)N2[C@H]3CC[C@H](c4cc(C(F)F)nc5ncnn45)[C@@H]2CC3)s1 [Compound 349]	86%	1780 nM	102%	22.4 nM	4790 nM	64%							
Cc1cc(C(=O)N2CC[C@@H](C)[C@H](c3cc(C(F)F)nc4ncnn34)C2)c(C)s1 [Compound 65]			100%	1.26 nM	6760 nM	70%	95%	251 nM	1.26 nM	100%			
C[C@@H]1CCN(C(=O)c2cnc(CF)cn2)C[C@H]1c1cc(C(F)F)nc2ncnn12 [Compound 255]	58%	7760 nM	95%	269 nM	> 10000 nM	28%	58%	7760 nM					
C[C@@H]1CCN(C(=O)c2ccncc2F)C[C@H]1c1cc(C(F)F)nc2ncnn12 [Compound 155]			98%	53.7 nM	> 10000 nM	37%	72%	2950 nM	53.7 nM	98%			
C[C@@H]1CCN(C(=O)c2ccno2)C[C@H]1c1cc(C(F)F)nc2ncnn12 [Compound 243]	70%	3630 nM	99%	132 nM	> 10000 nM	13%	70%	3630 nM	132 nM	99%			
C[C@@H]1CCN(C(=O)c2ncccc2N)C[C@H]1c1cc(C(F)F)nc2ncnn12 [Compound 233]	26%	> 10000 nM	94%	575 nM	> 10000 nM	10%	26%	> 10000 nM	575 nM	94%			
C[C@@H]1CCN(C(=O)c2cc(C(C)(C)C)on2)C[C@H]1c1cc(C(F)F)nc2ncnn12 [Compound 258]	90%	1260 nM	99%	151 nM	1550 nM	89%	90%	1260 nM					
COc1ccc(C(C)(C)C)cc1C(=O)N1CC[C@@H](C)[C@H](c2cc(C(F)F)nc3ncnn23)C1 [Compound 165]			100%	93.3 nM	> 10000 nM	36%	78%	3470 nM	93.3 nM	100%			
C[C@]1(c2cc(C(F)F)nc3ncnn23)CCCN(C(=O)c2ccc3nccn3c2)C1 (single isomer, unassigned) [Compound 212]			61%	575 nM	> 10000 nM	7%	8%	> 10000 nM	575 nM	61%			
Cc1cc(C(=O)N2[C@H]3CC[C@@H]2[C@H](c2cc(C(F)F)nc4ncnn24)CC3)cc(C(F)(F)F)n1 [Compound 285]	37%	> 10000 nM	65%	6920 nM	> 10000 nM	21%							
Cc1cc(C(=O)N2[C@H]3CC[C@H](c4cc(C(F)F)nc5ncnn45)[C@@H]2CC3)c(F)c(C)n1 [Compound 400]	41%		99%			16%					> 10000 nM	22.4 nM	> 10000 nM
Cc1c(C(=O)N2[C@H]3CC[C@@H]2[C@H](c2cc(C(F)F)nc4ncnn24)CC3)oc2ccccc12 [Compound 140]			100%	29.5 nM	8910 nM	57%	83%	3090 nM	29.5 nM	100%			
Cc1cc(C(=O)N2CC[C@@H](C)[C@H](c3cc(C(F)F)nc4ncnn34)C2)c(F)c(C(F)(F)F)n1 [Compound 396]	84%	1480 nM	98%	15.1 nM	> 10000 nM	56%							
C[C@@H]1CCN(C(=O)c2ccncn2)C[C@H]1c1cc(C(F)F)nc2ncnn12 [Compound 256]	48%		97%	324 nM	> 10000 nM	12%	48%						
C[C@@H]1CCN(C(=O)c2cccc3ocnc23)C[C@H]1c1cc(C(F)F)nc2ncnn12 [Compound 183]			99%	26.3 nM	> 10000 nM	36%	79%	2290 nM	26.3 nM	99%			
C[C@H]1CCN(C(=O)c2ccc3ncsc3c2)C[C@]1(F)c1cc(C(F)F)nc2ncnn12 [Compound 34]			88%	1950 nM	> 10000 nM	31%	28%	> 10000 nM	1950 nM	88%			
C[C@@H]1CCN(C(=O)c2cn(C)cn2)C[C@H]1c1cc(C(F)F)nc2ncnn12 [Compound 58]			99%	24.5 nM	> 10000 nM	18%	69%	4470 nM	24.5 nM	99%			
C[C@@H]1CCN(C(=O)c2ccc(C(C)(C)C)o2)C[C@H]1c1cc(C(F)F)nc2ncnn12 [Compound 136]			101%	3.39 nM	> 10000 nM	51%	97%	288 nM	3.39 nM	101%			
Cc1ccc(C(=O)N2[C@H]3CC[C@H](c4cc(C(F)F)nc5ncnn45)[C@@H]2CC3)o1 [Compound 354]	70%	4470 nM	100%	89.1 nM	9770 nM	45%							
Cc1ccc2cc(C(=O)N3[C@H]4CC[C@H](c5cc(C(F)F)nc6ncnn56)[C@@H]3CC4)c(C)nc2c1 [Compound 298]	47%	> 10000 nM	99%	18.6 nM	> 10000 nM	25%							
C[C@@H]1CCN(C(=O)c2ccn(C)c2)C[C@H]1c1cc(C(F)F)nc2ncnn12 [Compound 67]			99%	2.57 nM	> 10000 nM	49%	94%	288 nM	2.57 nM	99%			
O=C(c1ccc(C(F)(F)F)cc1)N1[C@H]2CC[C@H](c3cc(C(F)F)nc4ncnn34)[C@@H]1CC2 [Compound 340]	72%	3310 nM	100%	70.8 nM	4270 nM	69%							
C[C@@H]1CCN(C(=O)c2cccnc2F)C[C@H]1c1cc(C(F)F)nc2ncnn12 [Compound 262]	74%	3240 nM	101%	155 nM	> 10000 nM	37%	74%	3240 nM					
Cc1cnoc1C(=O)N1CC[C@@H](C)[C@H](c2cc(C(F)F)nc3ncnn23)C1 [Compound 160]			99%	72.4 nM	> 10000 nM	34%	88%	1020 nM	72.4 nM	99%			
O=C(c1ccc2sccc2c1)N1[C@H]2CC[C@H](c3cc(C(F)F)nc4ncnn34)[C@@H]1CC2 [Compound 372]	96%	251 nM	100%	1.02 nM	1350 nM	90%							
C[C@@H]1CCN(C(=O)c2ccc(F)cn2)C[C@H]1c1cc(C(F)F)nc2ncnn12 [Compound 251]	53%	8710 nM	98%	282 nM	> 10000 nM	17%	53%	8710 nM					
Cc1cc2cc(C(=O)N3[C@H]4CC[C@H](c5cc(C(F)F)nc6ncnn56)[C@@H]3CC4)ccc2n1C [Compound 373]	99%	316 nM	100%	2.69 nM	537 nM	97%							
C[C@@H]1CCN(C(=O)c2c(Cl)cncc2Cl)C[C@H]1c1cc(C(F)F)nc2ncnn12 [Compound 268]	39%	> 10000 nM	82%	1910 nM	> 10000 nM	13%	39%	> 10000 nM					
C[C@@H]1CCN(C(=O)c2ccc(Br)cn2)C[C@H]1c1cc(C(F)F)nc2ncnn12 [Compound 153]			100%	43.7 nM	3090 nM	76%	89%	1070 nM	43.7 nM	100%			
